Test results published in article PMC12476087, “Loading of Dicarboxylatoplatinum(II)‐NHC Complexes in Bacterial Ghosts as an Advanced Development in Cancer Therapy” (Archiv Der Pharmazie, 2025).

What was measured:
Assay type in all cases: cell-based
A2780cis cells [1] = test: MTT assay, A2780cis cells; settings: for Resistance factor RF = IC50(A2780cis)/IC50(A2780wt): 72 h; for IC50: 72 h exposure
Description: Carboplatin, a second‐generation platinum drug commonly used as part of standard first‐line chemotherapy for ovarian carcinoma, was examined as a reference compound due to its clinical relevance. Additionally, the nonmalignant bone marrow stromal cell line HS‐5 was included as a control to assess specificity of the complexes toward cancer cells.
Unloaded BGs (4 × 10^8 EcN or 2 × 10^8 Ec NM522, which is equivalent to the highest tested BG concentration) were tested as controls.
The exponentially growing cells were seeded at a density of 8 × 10^3 cells/well (A2780wt/cis) or 1 × 10^4 cells/well (HS‐5), respectively, into clear flat‐bottom 96‐well plates in triplicates. […] After another 72 h of incubation, the cellular metabolic activity was measured as an indicator of cell viability employing an MTT assay. Hereby, 20 µL of a 5 mg/mL MTT solution was added to each well, respectively. After 3 h of incubation, the medium was discarded, and the formazan crystals formed were dissolved in DMSO for 15 min with gentle shaking. […] The OD at 620 nm was subtracted from the OD at 595 nm. The OD of the medium was subtracted to exclude the unspecific staining caused by FCS‐containing medium. Cells treated with vehicle control (0.1% DMF) only were set at 100% metabolic activity. The IC50 values were calculated with Prism 8.0 (GraphPad Software Inc., Boston, MA, USA) using nonlinear regression. Significance was evaluated via a one sample t‐test performed with Prism 8.0.

A2780wt cells = test: Comet assay (intracellular DNA damage); settings: 50 µM, 48 h incubation
Description: Given that platinum‐based drugs are known to commonly induce DNA damage, a comet assay was conducted using A2780wt cells. This assay detects DNA damage such as DNA single/double strand breaks and DNA fragmentation, a common feature of apoptosis. […] DMF (0.1%)‐treated cells were used as a negative control to establish baseline DNA integrity.
Cellular DNA damage can be visualized by employing a comet assay, which is a single cell gel electrophoresis assay. Hereby, A2780wt cells were seeded at a density of 2 × 10^6 into 25 cm^2 flasks. After letting the cells adhere for 24 h in a humidified atmosphere, the cell culture medium was exchanged for medium containing the respective compound. The cells were then incubated for 48 h with the platinum complexes or 4 h with etoposide, respectively. After incubation, the cell growth was stopped by removing the compound‐containing medium, washing the cells with phosphate‐buffered saline (PBS) and detaching them with a rubber policeman. The detached cells were then centrifuged at 700g for 2 min and the resulting pellet was then washed with 5 mL of PBS. After that, the cells were adjusted to a concentration of 1 × 10^6 cells/mL and were resuspended in ice cold PBS. A total of 75 µL of liquified agarose per condition was transferred onto the slide to create a base layer. This base layer was solidified by transferring the slide to 4°C for 15 min. Afterwards, 10 µL of the above‐mentioned cell suspension in PBS were mixed with 90 µL of agarose. A total of 75 µL of this was added to each base layer, respectively. This layer was also allowed to solidify at 4°C for 15 min. The slide was then transferred to a small basin which contained pre‐chilled lysis buffer (14.6 g NaCl, 20 mL EDTA solution, 10 mL lysis solution, 10 mL DMSO, 60 mL deionized H2O), where it remained for 45 min in the dark at 4°C. The lysis buffer was then aspirated and exchanged with a pre‐chilled alkaline solution (1.2 g NaOH, 0.2 mL EDTA solution, 100 mL deionized H2O), where it remained for further 30 min in the dark at 4°C. The slide was then transferred to a horizontal electrophoresis chamber which was filled with cold alkaline solution. The electrophoresis conditions were set to 1.5 V/cm and 300 mA for 20 min. After the electrophoresis, the slide was transferred into a small basin containing pre‐chilled, deionized H2O. After 2 min, the water was aspirated and this washing step was repeated twice more. After the final rinse, the slide was submerged in 70% ethanol for 5 min. Once the slide has dried, 100 µL of diluted Vista Green DNA Dye was added to each well. After 15 min of incubation, the slides were analyzed on an IX‐70 epifluorescence microscope (Olympus, Shinjuku, Japan) using a FITC filter.

A2780cis cells [2] = test: ATP luminescence assay, A2780cis; settings: w/o BGs, 25 µM, 24 h
Excerpt: As a second potential mode of cell death, ICD has been investigated. Thus, two hallmarks of ICD, namely release of adenosine triphosphate (ATP) and calreticulin translocation to the plasma membrane have been analyzed in detail. Given that some platinum complexes, including the clinically used drug oxaliplatin [27], as well as BGs, are known inducers of ICD, we investigated the potential of BGs loaded with platinum(II)‐NHC complexes to trigger this process. […] Untreated cells (without compound and without BGs) were tested as negative controls.
The ATP assay was performed by employing the commercially available ATPlite Luminescence Assay System 96‐well (revvity, Massachusetts, USA). In brief, A2780wt and A2780cis cells, respectively, were seeded at a density of 8 × 10^3 cells per well into an opaque‐walled 96‐well plate with solid bottoms. […] After incubation, 50 µL of the provided mammalian cell lysis solution was added and incubated for further 5 min on an orbital shaker at 700 rpm. Then, 50 µL of a provided substrate solution was added and again incubated for 5 min on an orbital shaker at 700 rpm. The plate was allowed to dark adapt for 10 min and then the luminescence was measured. Analysis was performed on the BioTek Synergy H1.

[3] = system: surface calreticulin on A2780wt cells; test: Immunofluorescent surface calreticulin staining, A2780wt; settings: w/o BGs, 25 µM, 24 h
Description: Oxaliplatin, a known metal‐based ICD inducer, was included for comparison.
A2780wt or A2780cis cells were seeded at a density of 1.2 × 10^5 on cover slips and allowed to adhere for 24 h. […] Subsequently, the cells were washed again three times with PBS and they were incubated after adding the secondary antibody (Alexa‐Fluor‐conjugated anti‐rabbit, 1:200), for 45 min at rt. Subsequently, the cells were washed again three times with PBS and they were mounted on slides with mounting medium. After letting them dry overnight, visualization was performed by spinning disk confocal microscopy. […] Acquired images were background subtracted, individual cells were manually segmented, and fluorescence intensity for the calreticulin staining was quantified with a FIJI software. Two repetitions of the experiment were performed, where at least 20 cells per condition were analyzed and the mean intensity of each sample was calculated, respectively.

Row | Molecule | Resistance factor RF = IC50(A2780cis)/IC50(A2780wt) (A2780cis cells [1]) | IC50 (A2780cis cells [1]) | intracellular DNA damage (comet formation) (A2780wt cells) | ATP concentration (A2780cis cells [2]) | x‐fold intensity of surface calreticulin compared to untreated cells [3]
1 | CCN1[C]([Pt]([O]C(C)=O)([O]C(C)=O)[SH](C)(C)=O)N(CC)c2ccccc21 [Compound 1, (SP‐4‐2)‐Diacetato(1,3‐diethylbenzimidazol‐2‐ylidene)(dimethylsulfoxide)platinum(II)] | 1.2 | 36.5 ± 2.85 µM | induced intracellular DNA damage | 0.23 ± 0.05 µM | 1.09 ± 0.00 x‐fold
2 | CCN1[C]([Pt]([O]C(=O)C(Cl)Cl)([O]C(=O)C(Cl)Cl)[SH](C)(C)=O)N(CC)c2ccccc21 [Compound 3, (SP‐4‐2)‐Bis(dichloroacetato)(1,3‐diethylbenzimidazol‐2‐ylidene)(dimethylsulfoxide)platinum(II)] |  | 83.1 ± 4.79 µM | induced intracellular DNA damage | 0.28 ± 0.04 µM | 1.50 ± 0.17 x‐fold
3 | (SP‐4‐2)‐Bis(dichloroacetato)bis(1,3‐diethylbenzimidazol‐2‐ylidene)platinum(II) [Compound 4] | 0.9 | 34.9 ± 1.7 µM | induced intracellular DNA damage | 0.10 ± 0.03 µM | 1.37 ± 0.24 x‐fold
4 | (SP‐4‐2)‐Diacetatobis(1,3‐diethylbenzimidazol‐2‐ylidene)platinum(II) [Compound 2] | 1.0 | 39.3 ± 2.8 µM | did not show any evidence of comet formation | 0.31 ± 0.04 µM | 1.07 ± 0.12 x‐fold
